Read-outs that look alike come from different tables or passages of the source.
What was measured:
human TNF = experiment: TNF inhibition: human whole blood assay; assay type: cell-based; settings: Homo sapiens, LPS, read-out: TNF Inhibition-Human Whole Blood Assay
[1] = biological target: T1, human GST-p38 kinase alpha (Homo sapiens, UniProt Q16539); experiment: p38 kinase in vitro assay, second format, phosphorylation of EGFRP with 33P-ATP; assay type: biochemical; settings: read-out: p38α Kinase Assay IC50
T1 construct: The coding region of the human p38a cDNA was obtained by PCR-amplification from RNA isolated from the human monocyte cell line THP.1; made in house; host or cells: E. coli DH10B
T1 sequence (Q16539 whole entry): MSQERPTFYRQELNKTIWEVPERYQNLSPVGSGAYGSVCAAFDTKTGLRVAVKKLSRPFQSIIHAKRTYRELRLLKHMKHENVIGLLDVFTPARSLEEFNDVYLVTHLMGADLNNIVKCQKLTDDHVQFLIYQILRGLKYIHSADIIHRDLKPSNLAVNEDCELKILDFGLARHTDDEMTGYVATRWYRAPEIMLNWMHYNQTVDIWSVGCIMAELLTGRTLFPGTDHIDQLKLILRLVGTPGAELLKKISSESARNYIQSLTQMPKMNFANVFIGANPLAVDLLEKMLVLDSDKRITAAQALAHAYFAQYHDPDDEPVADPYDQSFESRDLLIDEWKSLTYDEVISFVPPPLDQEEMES
How it was run: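 Activated human GST-p38α (pre-activated with GST-MKK6, 1 h, 30 °C) phosphorylates EGFR 21-mer peptide (200 μM) with 50 μM ATP plus γ-33P-ATP, pH 7.5, 60 min at room temperature. Unreacted ATP removed by AG 1×8 resin; supernatant scintillation-counted.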

TNF-α = experiment: Rat assay: LPS-challenged rats, serum TNF-α by ELISA; assay type: in vivo; settings: Rattus norvegicus, po; for inhibition in vivo at 5 mg/kg: read-out: Rat LPS Assay % Inhibition

SMILES | melting point | IC50 (human TNF; Table 10, human whole blood) [nM] | IC50 ([1]; Table 10, 10% DMSO, @ 1.0 hour) [nM] | other results
C#CCN1CCN(c2n[nH]c(-c3ccc(Cl)cc3)c2-c2ccncc2)CC1 [Example A-333, 1-[5-(4-chlorophenyl)-4-(4-pyridinyl)-1H-pyrazol-3-yl]-4-(2-propynyl)piperazine] | 247 °C (dec.) | – | – | IC50 (human TNF; Table 8, human whole blood): 585 nM; IC50 ([1]; Table 8, 10% DMSO): 52 nM; inhibition in vivo at 5 mg/kg (TNF-α; Table 8, dose 5.0 mg/kg): 69%
COc1ccc(-c2[nH]nc(N3CCN(C)CC3)c2-c2ccncc2)cc1Cl [Example A-413] | 272.7 to 276.4 °C | 6510 | 910 | inhibition in vivo at 5 mg/kg (TNF-α; Table 10, dose 5.0 mg/kg): 45%; inhibition in vivo at 20 mg/kg (TNF-α; Table 10, dose 20.0 mg/kg): 85%
N#CCCSc1[nH]nc(-c2ccc(Cl)cc2)c1-c1ccncc1 [Example A-483] | 205.7 to 206.5 °C | 510 | 300 | –
COc1ccc(-c2n[nH]c(N3CCN(C)CC3)c2-c2ccncc2)cc1 [Example A-415] | 259 to 260.2 °C | 510 | – | inhibition in vivo at 5 mg/kg (TNF-α; Table 10, dose 5.0 mg/kg): 17%; inhibition in vivo at 84 mg/kg (TNF-α; Table 10, dose […]): 84%
Nc1[nH]nc(-c2ccc(Cl)cc2)c1-c1ccncc1 [Example A-427, 5-amino-3-(4-chlorophenyl)-4-(pyridin-4-yl)pyrazole] | > 300 °C | 24100 | 190 | inhibition in vivo at 5 mg/kg (TNF-α; Table 10, dose 5.0 mg/kg): 56%; inhibition in vivo at 20 mg/kg (TNF-α; Table 10, dose 20.0 mg/kg): 77%
CN1CCC(Oc2[nH]nc(-c3ccc(Cl)cc3)c2-c2ccncc2)CC1 [Example A-448, 3-(4-chlorophenyl)-5-[(1-methylpiperidin-4-yl)-oxy]-4-pyridin-4-yl-1H-pyrazole] | 255.9 to 256.8 °C | 120 | 84 | inhibition in vivo at 5 mg/kg (TNF-α; Table 10, dose 5.0 mg/kg): 73%; inhibition in vivo at 20 mg/kg (TNF-α; Table 10, dose 20.0 mg/kg): 97%
Cc1cc(C(=O)C(=C2SCS2)c2ccncc2)ccc1Cl [Example A-391, 1-(4-chloro-3-methylphenyl)-2-1,3-dithietan-2-ylidene-2-pyridin-4-yl-ethanone] | 164 to 165 °C | > 25000 | 4830 | inhibition in vivo at 20 mg/kg (TNF-α; Table 10, dose 20.0 mg/kg): 53%
Cc1ccccc1-c1n[nH]c(N2CCN(C)CC2)c1-c1ccncc1 [Example A-408, 1-[5-(2-tolyl)-4-(4-pyridinyl)-1H-pyrazol-3-yl]-4-methylpiperazine] | 244 to 244.2 °C | 11700 | 5590 | inhibition in vivo at 5 mg/kg (TNF-α; Table 10, dose 5.0 mg/kg): 20%; inhibition in vivo at 20 mg/kg (TNF-α; Table 10, dose 20.0 mg/kg): 49%
Fc1ccc(-c2n[nH]c(SCC3OCCO3)c2-c2ccncc2)cc1 [Example A-451] | 202.1 to 205.4 °C | 15000 | 78 | –
CN1CCN(c2n[nH]c(-c3cccc(Cl)c3)c2-c2ccncc2)CC1 [Example A-327, 1-[5-(3-chlorophenyl)-4-(4-pyridinyl)-1-H-pyrazol-3-yl]-4-methylpiperazine] | 229 to 231 °C | – | – | IC50 (human TNF; Table 8, human whole blood): 180 nM; IC50 ([1]; Table 8, 10% DMSO): 150 nM; inhibition in vivo at 20 mg/kg (TNF-α; Table 8, dose 20.0 mg/kg): 83%
CN(C)CCCNC(=O)CSc1[nH]nc(-c2ccc(Cl)cc2)c1-c1ccncc1 [Example A-463] | 168.8 to 169.5 °C | > 25000 | 1660 | –
O=C1OCCC1CSc1[nH]nc(-c2ccc(Cl)cc2)c1-c1ccncc1 (stereo not shown) [Example A-472] | 224.2 to 225.9 °C | > 25000 | – | –
C=CCSc1[nH]nc(-c2ccc(Cl)cc2)c1-c1ccncc1 [Example A-479] | 207.3 to 208.1 °C | 2970 | 72 | –
COc1ccc(CSc2[nH]nc(-c3ccc(F)cc3)c2-c2ccncc2)cc1 [Example A-452] | 214.7 to 215.8 °C | 240 | 2870 | –
Clc1ccc(-c2n[nH]c(SCCOC3CCCCO3)c2-c2ccncc2)cc1 (stereo not shown) [Example A-474] | 163.2 to 163.5 °C | 970 | – | inhibition in vivo at 20 mg/kg (TNF-α; Table 10, dose 20.0 mg/kg): 59%
N#Cc1cccc(C(=O)C(=C2SCS2)c2ccncc2)c1 [Example A-406] | 168.6 to 168.7 °C | > 25000 | 7240 | –
NCCSc1[nH]nc(-c2ccc(Cl)cc2)c1-c1ccncc1 [Example A-480] | 186.8 to 187.8 °C | 160 | – | –
O=C1CN(Cc2ccccc2)CC(=O)N1c1[nH]nc(-c2ccc(Cl)cc2)c1-c1ccncc1 [Example A-428] | > 300 °C | 680 | 400 | –

SMILES | melting point | IC50 (human TNF; Table 10, human whole blood) [nM] | IC50 ([1]; Table 10, 10% DMSO, @ 1.0 hour) [nM] | other results
COc1[nH]nc(-c2ccc(Cl)cc2)c1-c1ccncc1 [Example A-446] | 265.3 °C | 3380 | 900 | –
CC(C)(C)c1ccc(C(=O)C(=C2SCS2)c2ccncc2)cc1 [Example A-398] | 172.1 to 173.1 °C | > 25000 | 45600 | –
CNC(=O)CSc1[nH]nc(-c2ccc(Cl)cc2)c1-c1ccncc1 [Example A-462] | 284 to 288.4 °C | > 25000 | 1660 | –
Cc1ccc(C(=O)C(=C2SCS2)c2ccncc2)cc1 [Example A-400] | 209.1 to 215.1 °C | > 25000 | 4770 | –
CCc1ccc(C(=O)C(=C2SCS2)c2ccncc2)cc1 [Example A-404] | 174.8 to 175 °C | > 25000 | 4130 | –
Clc1ccc(-c2n[nH]c(SCCc3c[nH]c4ccccc34)c2-c2ccncc2)cc1 [Example A-481] | 211.9 to 213.2 °C | > 25000 | 200 | –
Cc1ccc(-c2[nH]nc(N3CCN(C)CC3)c2-c2ccncc2)cc1 [Example A-416, 1-[5-(4-methylphenyl)-4-(4-pyridinyl)-1H-pyrazol-3-yl]-4-methylpiperazine] | 243 to 246.8 °C | 5070 | 41 | –
C[S+]([O-])c1[nH]nc(-c2ccc(F)cc2)c1-c1ccncc1 (stereo not shown) [Example A-436] | 262.9 °C | 4610 | 2810 | –
Cc1cc(C(=O)C(=C2SCS2)c2ccncc2)ccc1Br [Example A-405] | 167.1 to 167.5 °C | > 25000 | 4850 | –
N#CCCCSc1[nH]nc(-c2ccc(Cl)cc2)c1-c1ccncc1 [Example A-475] | 216.7 to 216.9 °C | 5110 | 280 | –
COC(=O)CSc1[nH]nc(-c2ccc(Cl)cc2)c1-c1ccncc1 [Example A-457] | 192.8 to 195.2 °C | > 25000 | 400 | –
C=Cc1ccc(C(=O)C(=C2SCS2)c2ccncc2)cc1 [Example A-403] | 176.6 to 176.7 °C | > 25000 | 4890 | –
Clc1ccc(-c2n[nH]c(OC3CCOC3)c2-c2ccncc2)cc1 (stereo not shown) [Example A-443] | > 300 °C | 4890 | 470 | –
CC(C)(C)OC(=O)NCCOc1[nH]nc(-c2ccc(Cl)cc2)c1-c1ccncc1 [Example A-445] | > 300 °C | > 25000 | 1080 | –
CC(C)(C)OC(=O)N1CCC(Sc2[nH]nc(-c3ccc(Cl)cc3)c2-c2ccncc2)CC1 [Example A-458] | 220.9 to 221 °C | > 25000 | 8700 | –
C#CCSc1[nH]nc(-c2ccc(Cl)cc2)c1-c1ccncc1 [Example A-478] | 212.7 to 213.2 °C | 490 | 180 | –
O=C(C(=C1SCS1)c1ccncc1)c1ccc(Cl)cc1 [Example A-390] | 185.3 to 185.4 °C | > 25000 | 15100 | –
